Source: paper PMC11724075, “Small-molecule-induced ERBB4 activation to treat heart failure” (Nature Communications, 2025)
Values joined by “and” are separate entries in the source; they are usually repeats but may differ in a detail not shown here. Equal values may be shown once.

Columns and labels:
iAMs = test: Cardiomyocyte hypertrophy assay: CSA of iAMs after AngII, also with PD98059; format: cell-based, rat
Description: iAMs were seeded at a density of 10^4 cells/well in differentiation medium in 24-well plates (Greiner Bio-One, 662160) and differentiated over 9 days (d0 = day of seeding). […] To determine CSA, cells were fixed with 4% paraformaldehyde (PFA, Thermo Fisher Scientific, 043368.9 M) for 30 min at 4 °C. Cells were washed thrice with PBS and permeabilized by incubation with 0.1% Triton X-100 (Merck, 10789704001) for 10 min at RT. iAMs were stained with Alexa Fluor 568 phalloidin (Thermo Fisher Scientific, A12380) in 1% BSA-PBS solution for 1 h at RT. After washing 3 times with PBS, DAPI (Merck, D9542) was added. Images were obtained by fluorescence microscopy (Celena S).
CSA was quantified using an automated algorithm, custom-made in Python[67]. The mode mD (maximum of the histogram) of DAPI intensities (excluding 0) was determined and binary segmentation of nuclei was created with threshold mD + SDD (with SDD the SD of DAPI intensities). Distinct objects with an area less than 500 pixels and nuclei where the average overlapping iAM signal was less than mdA + 0.5 SDA (with mdA and SDA the median and SD of the Alexa Fluor 568 intensity, respectively) were removed. […]

Erbb4-null mice = test: AngII-induced myocardial fibrosis in Erbb4-null mice, Masson's trichrome fibrosis; format: in vivo, mouse; set-up: Perivascular fibrosis: dose or concentration left out as unconfirmed
Description: Four weeks after implantation, cardiac ultrasound was performed, mice were euthanized, and hearts were collected. A similar set-up was used for the 1-week study (Alzet, model 1007D) in male mice (n = 9-10 mice in every group).
Floxed Erbb4 mice (Erbb4^f/f; C57BL/6N; 129-Erbb4tm1Fej/Mmucd, MMRRC, #010439-UCD) were crossed with CAGGCre-ER^TM mice (Jackson Laboratory, 004682) containing the Tg(CAG-cre/Esr1*)5Amc transgene that expresses Cre recombinase under the control of a chicken beta actin promoter/enhancer coupled to the human cytomegalovirus immediate-early gene enhancer, resulting in expression of tamoxifen-inducible Cre-ERT in most cell types. To induce Cre recombinase-mediated deletion of Erbb4, eleven-week-old female and male iCAGGCre-ER^TM/Erbb4^f/f mice were intraperitoneally injected with tamoxifen (Merck, T5648; 10 mg/kg; in corn oil) daily for 5 consecutive days.
Hearts were fixed in 4% PFA, paraffin-embedded, and cut into 5-µm sections. Images were acquired with an Olympus BX43 microscope (Olympus Stream Motion Software) or a CELENA® S Digital Imaging System and analyzed with ImageJ 2.14.0 software. Collagen distribution was visualized by Masson’s trichrome staining. Cardiac total fibrosis was expressed as the ratio of positively stained fibrotic area (blue) to the total area and perivascular fibrosis as the ratio of fibrotic area to vascular lumen area. Scar size was determined by measuring the scar length over the […]. Hypertrophy and vascularisation were visualized via an isolectin-B4/WGA/DAPI staining. Quantification was performed by a person blinded to the treatment protocol.

ERBB1/ERBB1 = target: T1, ERBB1/ERBB1 (Homo sapiens, UniProt P00533); test: PathHunter U2OS ERBB1/ERBB1 dimerization assay; format: cell-based; conditions: for ERBB1/ERBB1 dimerization signal: relative to signal with EGF, single biological replicates
T1 construct: host or cells: U2OS (osteosarcoma cells), PathHunter engineered line
T1 sequence (P00533 25-1210): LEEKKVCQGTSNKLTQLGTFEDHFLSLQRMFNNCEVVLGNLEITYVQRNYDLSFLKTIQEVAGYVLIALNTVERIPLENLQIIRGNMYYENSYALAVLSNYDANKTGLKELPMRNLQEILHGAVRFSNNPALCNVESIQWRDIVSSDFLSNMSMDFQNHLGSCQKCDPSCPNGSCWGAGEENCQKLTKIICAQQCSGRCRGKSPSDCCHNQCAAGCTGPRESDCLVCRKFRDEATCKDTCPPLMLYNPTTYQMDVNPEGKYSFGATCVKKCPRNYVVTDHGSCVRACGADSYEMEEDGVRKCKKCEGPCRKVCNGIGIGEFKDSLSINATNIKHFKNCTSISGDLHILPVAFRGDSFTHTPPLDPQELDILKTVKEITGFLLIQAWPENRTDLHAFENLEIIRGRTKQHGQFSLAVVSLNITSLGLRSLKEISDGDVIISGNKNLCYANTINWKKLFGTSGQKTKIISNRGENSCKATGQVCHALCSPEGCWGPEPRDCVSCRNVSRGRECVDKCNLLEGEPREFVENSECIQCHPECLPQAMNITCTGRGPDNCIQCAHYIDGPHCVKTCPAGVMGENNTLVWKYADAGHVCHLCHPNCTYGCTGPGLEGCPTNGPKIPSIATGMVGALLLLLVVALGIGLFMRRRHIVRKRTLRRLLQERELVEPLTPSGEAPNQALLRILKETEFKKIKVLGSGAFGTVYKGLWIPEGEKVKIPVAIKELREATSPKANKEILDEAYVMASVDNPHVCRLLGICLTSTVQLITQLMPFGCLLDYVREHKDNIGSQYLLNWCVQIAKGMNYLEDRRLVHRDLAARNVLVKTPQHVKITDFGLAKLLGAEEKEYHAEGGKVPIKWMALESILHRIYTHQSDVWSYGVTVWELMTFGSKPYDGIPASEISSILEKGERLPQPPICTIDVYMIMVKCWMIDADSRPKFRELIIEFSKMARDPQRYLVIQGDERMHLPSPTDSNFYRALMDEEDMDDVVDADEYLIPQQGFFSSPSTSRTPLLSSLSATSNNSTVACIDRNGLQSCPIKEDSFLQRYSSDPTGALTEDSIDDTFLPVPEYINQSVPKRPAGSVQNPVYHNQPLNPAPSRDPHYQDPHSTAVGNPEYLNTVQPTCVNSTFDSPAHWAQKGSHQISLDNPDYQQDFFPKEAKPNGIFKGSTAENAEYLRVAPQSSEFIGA
T1 sequence (P00533 25-1210): as above
Description: PathHunter U2OS ERBB4/ERBB4 (osteosarcoma cells; Eurofins, 93-0961C3), U2OS ERBB2/ERBB4 (osteosarcoma cells; Eurofins, 493-0960C3), ERBB2/ERBB3 (osteosarcoma cells; Eurofins, 93-1042C3) and ERBB1/ERBB1 (osteosarcoma cells; Eurofins, 93-0989C3) dimerization cell lines were cultured according to the manufacturer’s instructions. Briefly, cells were cultured in Cell Culture Reagent 103 (Eurofins, 92-3103 G) supplemented with 250 µg/mL Hygromycin B (Eurofins, 92-0029) and 500 µg/mL G418 (Eurofins, 92-0030), and were maintained at 37 °C in humidified atmosphere of 5% CO2. HCFs (Innoprot, P10454) were cultured in fibroblast medium (Innoprot, P60108) supplemented with 10% (v/v) fetal bovine serum (FBS, Innoprot), 10% (v/v) fibroblast growth supplement (Innoprot), and 1% (v/v) penicillin/streptomycin solution (Innoprot). iAMs[33] (kindly provided by LUMC) were cultured in Advanced DMEM F-12 (Thermo Fisher Scientific, 12634028) supplemented with 2% (v/v) heat-inactivated FBS (Thermo Fisher Scientific, 10270106), 1% (v/v) penicillin/streptomycin (10,000 units/mL and 10 mg/mL respectively, Thermo Fisher Scientific, 15140122), 1× GlutaMAX (Thermo Fisher Scientific, 35050061), and 100 ng/mL doxycycline (Tocris, 4090) for proliferation. To induce differentiation, iAMs were transferred to medium without doxycycline.
U2OS ERBB4/ERBB4 dimerization cells were seeded at a density of 5 × 10^4 cells/well in 100 µL Cell Plating 0 Reagent, in white 96-well plates (PerkinElmer, 6005680) and incubated for 24 h at 37 °C, 5% CO2. […] Next, 110 µL PathHunter Flash Detection Reagent was added to each well and incubated at RT for 1 h after which the luminescence signal was measured using the Luminoskan Ascent (Thermo Fisher Scientific). […] The same experimental set-up was used for the U2OS ERBB2/ERBB4, U2OS ERBB2/ERBB3 and U2OS ERBB1/ERBB1 dimerization cell lines.

In the case of `O=C(NC1CC1)C(Sc1nc2ccccc2c(=O)n1C1CCCC1)c1ccccc1` (centres unmarked) [EF-1], the “anti-hypertrophic effect of EF-1 under ERK1/2 pathway inhibition (PD98059) (in words)” value (iAMs) is reported as “blocked upon inhibition of the ERK1/2 pathway”, the “effect on AngII-induced increase in CSA (in words)” value (iAMs; EF-1 4–32 µM) is reported as “dose-dependently attenuated” and the Total fibrosis (Erbb4-null mice; male+female Erbb4-null mice, AngII/EF-1, AngII 400 ng/kg/day, single animals) is reported as 3.25 and 2.45 and 2.12 and 2.92 and 4.07. The Perivascular fibrosis (Erbb4-null mice; male+female Erbb4-null mice, AngII/EF-1, single animals) was 0.6515 and 1.352 and 0.6814 and 0.7388 and 1.066, the “effect on AngII-induced interstitial or perivascular fibrosis in Erbb4-null mice (in words)” value (Erbb4-null mice; mouse, in vivo) was “did not significantly prevent interstitial or perivascular AngII-induced fibrosis” and the EC50 (ERBB1/ERBB1) was greater than 32 µM. The ERBB1/ERBB1 dimerization signal (ERBB1/ERBB1; 3.125e-8 M) was 0, the ERBB1/ERBB1 dimerization signal (ERBB1/ERBB1; 6.25e-8 M) was 8.38 and 6.13 and 6.6 and 7.02 and 4.04 and 2.46 and the ERBB1/ERBB1 dimerization signal (ERBB1/ERBB1; 1.25e-7 M) was 4.23 and 2.21 and 2.75 and 1.65 (2×) and 1.93. For the same compound, the ERBB1/ERBB1 dimerization signal (ERBB1/ERBB1; 2.5e-7 M) was 5.73 and 2.08 and 2.79 and 4.91 and 2.29 and 1.1, the ERBB1/ERBB1 dimerization signal (ERBB1/ERBB1; 5e-7 M) was 5.49 and 1.35 and 1.39 and 3.65 and 1.57 and 0.45 and the ERBB1/ERBB1 dimerization signal (ERBB1/ERBB1; 1e-6 M) was 6.08 and 3.69 and 2.97 and 5.23 and 2.17 and 1.53. For the same compound, the ERBB1/ERBB1 dimerization signal (ERBB1/ERBB1; 2e-6 M) was 8.8 and 4.67 and 6.18 and 5.92 and 4.48 and 3.39, the ERBB1/ERBB1 dimerization signal (ERBB1/ERBB1; 4e-6 M) was 15.68 and 13.03 and 10.62 and 10.47 and 7.22 and 7.25 and the ERBB1/ERBB1 dimerization signal (ERBB1/ERBB1; 8e-6 M) was 28.31 and 23.51 and 19.8 and 20.63 and 14.67 and 14.01. The ERBB1/ERBB1 dimerization signal (ERBB1/ERBB1; 1.6e-5 M) was 47.08 and 37.9 and 37.11 and 43.5 and 44.59 and 32.06 and the ERBB1/ERBB1 dimerization signal (ERBB1/ERBB1; 3.2e-5 M) was 67.98 and 64.53 and 62.88 and 78.66 and 59.73 and 53.27.
